Measured values as given in PMC10415349, “Structural basis of agonist specificity of α1A-adrenergic receptor” (Nature Communications, 2023).

Experiments:
[1] = biological target: T1, α1B-AR(A204V, S208A, L314M) (Homo sapiens, UniProt P35368, A204V/L314M/S208A); assay: Ca2+ imaging (GCaMP6f) in transfected HEK293T cells; format: cell-based
T1 construct: gene ADRA1B
T1 sequence (P35368 1-520 A204V/S208A/L314M): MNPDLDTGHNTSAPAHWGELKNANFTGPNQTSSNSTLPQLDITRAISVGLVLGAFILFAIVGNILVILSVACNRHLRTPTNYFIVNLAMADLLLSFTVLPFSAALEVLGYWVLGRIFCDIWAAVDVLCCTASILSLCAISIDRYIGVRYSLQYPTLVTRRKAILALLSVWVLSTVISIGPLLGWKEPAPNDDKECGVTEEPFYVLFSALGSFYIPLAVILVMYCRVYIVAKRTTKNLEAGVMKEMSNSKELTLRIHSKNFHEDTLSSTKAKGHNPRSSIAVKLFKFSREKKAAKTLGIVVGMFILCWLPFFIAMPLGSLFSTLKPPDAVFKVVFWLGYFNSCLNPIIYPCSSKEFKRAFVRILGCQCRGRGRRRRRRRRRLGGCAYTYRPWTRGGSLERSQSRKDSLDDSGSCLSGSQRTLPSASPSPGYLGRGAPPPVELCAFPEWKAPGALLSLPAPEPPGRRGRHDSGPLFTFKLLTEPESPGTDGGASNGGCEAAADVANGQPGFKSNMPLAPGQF

[2] = biological target: T2, α1A-AR(V185A, A189S, M292L) (Homo sapiens, UniProt P35348, V185A/A189S/M292L)
T2 construct: gene ADRA1A
T2 sequence (P35348 whole entry V185A/A189S/M292L): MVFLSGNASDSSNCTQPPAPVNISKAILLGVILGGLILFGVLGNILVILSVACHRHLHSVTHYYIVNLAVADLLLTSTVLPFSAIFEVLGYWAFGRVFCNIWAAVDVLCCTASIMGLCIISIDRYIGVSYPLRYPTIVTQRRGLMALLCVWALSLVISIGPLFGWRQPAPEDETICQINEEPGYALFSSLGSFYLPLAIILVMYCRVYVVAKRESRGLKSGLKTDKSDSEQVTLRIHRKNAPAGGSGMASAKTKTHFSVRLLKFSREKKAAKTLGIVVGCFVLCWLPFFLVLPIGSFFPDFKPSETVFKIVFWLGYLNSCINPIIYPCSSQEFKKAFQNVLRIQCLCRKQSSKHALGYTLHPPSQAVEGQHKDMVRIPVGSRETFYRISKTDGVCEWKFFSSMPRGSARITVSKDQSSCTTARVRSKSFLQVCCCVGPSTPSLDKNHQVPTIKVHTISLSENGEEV

Row | SMILES | EC50 [1] | Ca2+ imaging (GCaMP6f) in transfected HEK293T cells, saturating concentration [2]
1 | CS(=O)(=O)Nc1c(O)ccc2c1CCCC2C1=NCCN1 (centres unmarked) [A61603] | ~10 nM | –
2 | CNC[C@H](O)c1ccc(O)c(O)c1 [epinephrine] | – | This triple mutant was still functional in response to epinephrine
